Laboratory results reported in patent US20240287138A1, “CYCLIC PEPTIDES FOR INHIBITING TNF RECEPTOR 1 ACTIVITY” (Merck Sharp & Dohme LLC, priority 2023, published 2024).
Where two headings read alike, the source gives them in different places. Numbered stars: 1 amine (or outer) side, 2 acyl side, 3 side chain; on linkers, the order of the positions; unused ones are H or OH. Bridge positions count the residues as written; N and C are the ends. Square brackets hold non-standard residues; d marks the D form. Peptide text beside a SMILES is read from it. Trp(βS-Me,7-OMe) = COc1cccc2c([C@H](C)[C@H](N)C(=O)O)c[nH]c12; Phe(4-SO2NH2) = N[C@@H](Cc1ccc(S(N)(=O)=O)cc1)C(=O)O; Phe(2-F,4-COOH) = N[C@@H](Cc1ccc(C(=O)O)cc1F)C(=O)O; Trp(7-CN) = N#Cc1cccc2c(C[C@H](N)C(=O)O)c[nH]c12; Trp(7-Cl) = N[C@@H](Cc1c[nH]c2c(Cl)cccc12)C(=O)O; Ala(pyrimidin-5-yl) = N[C@@H](Cc1cncnc1)C(=O)O; Phe(3-CONH2) = NC(=O)c1cccc(C[C@H](N)C(=O)O)c1; Phe(4-CONH2) = NC(=O)c1ccc(C[C@H](N)C(=O)O)cc1; Phe(4-COOH) = N[C@@H](Cc1ccc(C(=O)O)cc1)C(=O)O; 4Pal(3S-Me) = C[C@@H](c1ccncc1)[C@H](N)C(=O)O; Trp(7-aza) = N[C@@H](Cc1c[nH]c2ncccc12)C(=O)O; Phe(4-CH2NH2) = NCc1ccc(C[C@H](N)C(=O)O)cc1; Pip(5R-OH) = O=C(O)[C@@H]1CC[C@@H](O)CN1; αMeW = C[C@](N)(Cc1c[nH]c2ccccc12)C(=O)O; X1 = O=C([C@@H]1CC[C@H](N[*:1])C1)[*:2]; Met(O2) = CS(=O)(=O)CC[C@H](N)C(=O)O; Pip(4-aza) = O=C(O)[C@@H]1CNCCN1; 4Pal = N[C@@H](Cc1ccncc1)C(=O)O; Gly(cBu) = N[C@H](C(=O)O)C1CCC1; NMeE = CN[C@@H](CCC(=O)O)C(=O)O; dHyp = O=C(O)[C@H]1C[C@H](O)CN1; Cit = NC(=O)NCCC[C@H](N)C(=O)O; Gly(N-CH2CH2OH) = O=C(O)CNCCO; Ahp(2) = CCCCC[C@H](N)C(=O)O; hSer = N[C@@H](CCO)C(=O)O; αMeS = C[C@](N)(CO)C(=O)O; Nle = CCCC[C@H](N)C(=O)O; Sar = CNCC(=O)O

Columns and labels:
[1] = biological target: T1, human TNFR1 extracellular domain (ECD) protein (Homo sapiens, UniProt P19438); test: SPR binding affinity to captured human TNFR1 ECD
T1 construct: HRV 3C protease cleavage site (C); 6His (C, cleaved yes); made in house; host or cells: Sf21 insect cells (baculovirus), secreted
T1 sequence (P19438 30-211): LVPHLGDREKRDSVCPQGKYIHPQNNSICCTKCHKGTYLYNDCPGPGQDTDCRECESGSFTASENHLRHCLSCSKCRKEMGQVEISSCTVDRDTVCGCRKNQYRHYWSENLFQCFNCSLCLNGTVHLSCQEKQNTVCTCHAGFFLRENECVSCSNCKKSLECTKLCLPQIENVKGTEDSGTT
Method in brief: (§1)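 Read-out: kon, koff and derived affinity from SPR response units. Human TNFR1 and TNFR2 ECD, Avi-tag biotinylated with BirA, captured on a streptavidin surface; peptides injected under laminar flow in HEPES-saline with EDTA, P20 and 2% DMSO.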

[2] = biological target: T2, human TNFR2 ECD protein (Homo sapiens, UniProt P20333); test: SPR off-target binding (selectivity) to human TNFR2 ECD
T2 construct: HRV 3C protease cleavage site (C); 6His (C, cleaved yes); made in house; host or cells: Sf21 insect cells (baculovirus), secreted
T2 sequence (P20333 23-257): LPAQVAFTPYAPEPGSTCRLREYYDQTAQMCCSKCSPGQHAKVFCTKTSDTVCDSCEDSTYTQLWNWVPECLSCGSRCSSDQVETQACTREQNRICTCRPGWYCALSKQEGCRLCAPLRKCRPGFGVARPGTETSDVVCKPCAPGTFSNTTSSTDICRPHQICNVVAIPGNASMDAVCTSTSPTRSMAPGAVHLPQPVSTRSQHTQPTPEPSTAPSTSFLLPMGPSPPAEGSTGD
Method in brief: as §1

[3] = biotinylated human TNFR1 ECD on streptavidin chip, from kon and koff, read-out: SPR hTNFR1 KD
[4] = biotinylated human TNFR2 ECD on streptavidin chip, read-out: SPR hTNFR2 KD

Row | SMILES | Kd [1, 3] [nM] | Kd [2, 4] [nM] | Kd [1] [nM] | Kd [2] [nM]
1 | CCCC[C@@H]1NC(=O)[C@@H]2CC[C@@H](C2)NC(=O)[C@H]([C@@H](C)c2c[nH]c3c(OC)cccc23)NC(=O)CN(C)C(=O)[C@H](Cc2ccc(CN)cc2)NC(=O)[C@H](Cc2ccc(C(N)=O)cc2)NC(=O)[C@](C)(CO)NC(=O)[C@H](Cc2c[nH]c3c(C#N)cccc23)NC(=O)[C@H](Cc2ccc(C(=O)O)cc2)NC(=O)[C@H](CC(N)=O)NC(=O)[C@H]2C[C@H](O)CN2C(=O)[C@H](Cc2c[nH]c3ccccc23)NC(=O)[C@@H]2CC[C@@H](O)CN2C(=O)[C@H](Cc2ccncc2)NC1=O [SEQ ID NO. 48] (cyclo([4Pal][Pip(5R-OH)]W[dHyp]N[Phe(4-COOH)][Trp(7-CN)][αMeS][Phe(4-CONH2)][Phe(4-CH2NH2)][Sar][Trp(βS-Me,7-OMe)][X1][Nle])) | 0.03 | > 1000 | – | –
2 | CCCCC[C@@H]1NC(=O)[C@@H]2CC[C@@H](C2)NC(=O)[C@H]([C@@H](C)c2c[nH]c3c(OC)cccc23)NC(=O)CN(C)C(=O)[C@H](Cc2ccc(C(N)=O)cc2)NC(=O)[C@H](Cc2ccc(C(N)=O)cc2)NC(=O)[C@](C)(CO)NC(=O)[C@H](Cc2c[nH]c3c(C#N)cccc23)NC(=O)[C@H](Cc2ccc(C(=O)O)cc2)NC(=O)[C@H](CC(N)=O)NC(=O)[C@H]2C[C@H](O)CN2C(=O)[C@H](Cc2c[nH]c3ccccc23)NC(=O)[C@H](CCS(C)(=O)=O)NC(=O)[C@H]([C@@H](C)c2ccncc2)NC1=O [SEQ ID NO. 49] (cyclo([Ahp(2)][4Pal(3S-Me)][Met(O2)]W[dHyp]N[Phe(4-COOH)][Trp(7-CN)][αMeS][Phe(4-CONH2)][Phe(4-CONH2)][Sar][Trp(βS-Me,7-OMe)][X1])) | – | – | 0.08 | > 1000
3 | CCCCC[C@@H]1NC(=O)[C@@H]2CC[C@@H](C2)NC(=O)[C@H]([C@@H](C)c2c[nH]c3c(OC)cccc23)NC(=O)CN(C)C(=O)[C@H](Cc2ccc(C(N)=O)cc2)NC(=O)[C@H](Cc2ccc(C(N)=O)cc2)NC(=O)[C@](C)(CO)NC(=O)[C@H](Cc2c[nH]c3c(C#N)cccc23)NC(=O)[C@H](Cc2ccc(C(=O)O)cc2)NC(=O)[C@H](CC(N)=O)NC(=O)[C@H]2C[C@H](O)CN2C(=O)[C@H](Cc2c[nH]c3ccccc23)NC(=O)[C@H](CCO)NC(=O)[C@H]([C@@H](C)c2ccncc2)NC1=O [SEQ ID NO. 50] (cyclo([Ahp(2)][4Pal(3S-Me)][hSer]W[dHyp]N[Phe(4-COOH)][Trp(7-CN)][αMeS][Phe(4-CONH2)][Phe(4-CONH2)][Sar][Trp(βS-Me,7-OMe)][X1])) | – | – | 0.04 | > 1000
4 | CCCC[C@@H]1NC(=O)[C@@H]2CC[C@@H](C2)NC(=O)[C@H]([C@@H](C)c2c[nH]c3c(OC)cccc23)NC(=O)CN(C)C(=O)[C@H](Cc2ccc(C(=O)O)cc2F)NC(=O)[C@H](Cc2ccc(S(N)(=O)=O)cc2)NC(=O)[C@](C)(CO)NC(=O)[C@H](Cc2c[nH]c3c(C#N)cccc23)NC(=O)[C@H](Cc2ccc(C(=O)O)cc2F)NC(=O)[C@H](CC(N)=O)NC(=O)[C@H]2C[C@H](O)CN2C(=O)[C@H](Cc2c[nH]c3ncccc23)NC(=O)[C@@H]2CC[C@@H](O)CN2C(=O)[C@H](Cc2cncnc2)NC1=O [SEQ ID NO. 51] (cyclo(N[Phe(2-F,4-COOH)][Trp(7-CN)][αMeS][Phe(4-SO2NH2)][Phe(2-F,4-COOH)][Sar][Trp(βS-Me,7-OMe)][X1][Nle][Ala(pyrimidin-5-yl)][Pip(5R-OH)][Trp(7-aza)][dHyp])) | 0.08 | > 1000 | – | –
5 | CCCC[C@@H]1NC(=O)[C@@H]2CC[C@@H](C2)NC(=O)[C@H]([C@@H](C)c2c[nH]c3c(OC)cccc23)NC(=O)CN(C)C(=O)[C@H](Cc2ccc(C(=O)O)cc2)NC(=O)[C@H](Cc2ccc(C(N)=O)cc2)NC(=O)[C@](C)(CO)NC(=O)[C@H](Cc2c[nH]c3c(Cl)cccc23)NC(=O)[C@H](Cc2ccncc2)NC(=O)[C@H](CC(N)=O)NC(=O)[C@H]2C[C@H](O)CN2C(=O)[C@H](Cc2c[nH]c3ccccc23)NC(=O)[C@@H]2CC[C@@H](O)CN2C(=O)[C@H](Cc2ccncc2)NC1=O [SEQ ID NO. 53] (cyclo([4Pal][Trp(7-Cl)][αMeS][Phe(4-CONH2)][Phe(4-COOH)][Sar][Trp(βS-Me,7-OMe)][X1][Nle][4Pal][Pip(5R-OH)]W[dHyp]N)) | 0.02 | > 1000 | – | –
6 | COc1cccc2c([C@H](C)[C@@H]3NC(=O)CN(C)C(=O)[C@H](Cc4cccc(C(N)=O)c4)NC(=O)[C@H](Cc4ccc(C(=O)O)cc4)NC(=O)[C@](C)(CO)NC(=O)[C@H](Cc4c[nH]c5c(Cl)cccc45)NC(=O)[C@H](Cc4ccncc4)NC(=O)[C@H](CC(N)=O)NC(=O)[C@H]4C[C@H](O)CN4C(=O)[C@H](Cc4c[nH]c5ccccc45)NC(=O)[C@@H]4CC[C@@H](O)CN4C(=O)[C@H](Cc4ccncc4)NC(=O)[C@H](CCCNC(N)=O)NC(=O)[C@@H]4CC[C@@H](C4)NC3=O)c[nH]c12 [SEQ ID NO. 54] (cyclo([4Pal][Trp(7-Cl)][αMeS][Phe(4-COOH)][Phe(3-CONH2)][Sar][Trp(βS-Me,7-OMe)][X1][Cit][4Pal][Pip(5R-OH)]W[dHyp]N)) | – | – | 0.07 | > 1000
7 | CCCC[C@@H]1NC(=O)CSC[C@@H](C(N)=O)NC(=O)[C@](C)(Cc2c[nH]c3ccccc23)NC(=O)CN(C)C(=O)[C@H](Cc2ccc(O)cc2)NC(=O)[C@H](Cc2ccc(C(=O)O)cc2)NC(=O)[C@](C)(CO)NC(=O)[C@H](Cc2c[nH]c3c(Cl)cccc23)NC(=O)[C@H](Cc2ccncc2)NC(=O)[C@H](CC(N)=O)NC(=O)[C@H](CCC(=O)O)N(C)C(=O)[C@H](Cc2c[nH]c3ncccc23)NC(=O)[C@H](C2CCC2)NC(=O)[C@H](Cc2ccncc2)NC1=O [SEQ ID NO. 56] ({CH2CO}-[Nle][4Pal][Gly(cBu)][Trp(7-aza)][NMeE]N[4Pal][Trp(7-Cl)][αMeS][Phe(4-COOH)]Y[Sar][αMeW]C-NH2; thioether N-14) | – | – | 27.2 | > 1000
8 | CCCCC[C@@H]1NC(=O)[C@@H]2CC[C@@H](C2)NC(=O)[C@H]([C@@H](C)c2c[nH]c3c(OC)cccc23)NC(=O)CN(C)C(=O)[C@H](Cc2ccc(C(N)=O)cc2)NC(=O)[C@H](Cc2ccc(C(N)=O)cc2)NC(=O)[C@](C)(CO)NC(=O)[C@H](Cc2c[nH]c3c(C#N)cccc23)NC(=O)[C@H](Cc2ccc(C(=O)O)cc2)NC(=O)[C@H](CC(N)=O)NC(=O)[C@H]2C[C@H](O)CN2C(=O)[C@H](Cc2c[nH]c3ccccc23)NC(=O)[C@H](CCC(N)=O)NC(=O)[C@H]([C@@H](C)c2ccncc2)NC1=O [SEQ ID NO. 70] (cyclo([Ahp(2)][4Pal(3S-Me)]QW[dHyp]N[Phe(4-COOH)][Trp(7-CN)][αMeS][Phe(4-CONH2)][Phe(4-CONH2)][Sar][Trp(βS-Me,7-OMe)][X1])) | – | – | 0.07 | > 1000
9 | CCCC[C@@H]1NC(=O)[C@@H]2CC[C@@H](C2)NC(=O)[C@H]([C@@H](C)c2c[nH]c3c(OC)cccc23)NC(=O)CN(C)C(=O)[C@H](Cc2ccc(O)cc2)NC(=O)[C@H](Cc2ccc(C(=O)O)cc2)NC(=O)[C@](C)(CO)NC(=O)[C@H](Cc2c[nH]c3c(Cl)cccc23)NC(=O)[C@H](Cc2ccncc2)NC(=O)[C@H](CC(N)=O)NC(=O)CN(CCO)C(=O)[C@H](Cc2c[nH]c3ccccc23)NC(=O)[C@@H]2CNCCN2C(=O)[C@H](Cc2ccncc2)NC1=O [SEQ ID NO. 72] (cyclo([4Pal][Trp(7-Cl)][αMeS][Phe(4-COOH)]Y[Sar][Trp(βS-Me,7-OMe)][X1][Nle][4Pal][Pip(4-aza)]W[Gly(N-CH2CH2OH)]N)) | – | – | 0.05 | > 1000
